In patent publication US12516039B2, “N-linked isoquinoline amides as LRRK2 inhibitors, pharmaceutical compositions, and uses thereof” (Merck Sharp & Dohme LLC, priority 2020, dated 2026):

Molecular target: T1, GST-tagged truncated human mutant G2019S LRRK2 (Homo sapiens, UniProt Q5S007, G2019S)
T1 construct: GST-tagged truncated human mutant G2019S LRRK2; purchased Life Technologies Corporation (Carlsbad, CA)
Test: LRRK2 G2019S Km ATP LanthaScreen assay
Assay type: biochemical
Settings: 134 μM ATP (Km ATP), LRRKtide substrate, mean of several tests, read-out: LRRK2 pIC50 (converted)
Summary of the method: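 IC50 values are means of repeat runs, fitted with a 4-parameter logistic to the 520/495 nm TR-FRET ratio from a Tb-labeled anti-phospho-LRRKtide antibody added with EDTA. Reactions ran 90 min at room temperature at Km ATP (134 μM) with fluorescein-LRRKtide, after 15-min compound preincubation with truncated GST-tagged G2019S LRRK2.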

T1 sequence (Q5S007 970-2527 G2019S limits assumed): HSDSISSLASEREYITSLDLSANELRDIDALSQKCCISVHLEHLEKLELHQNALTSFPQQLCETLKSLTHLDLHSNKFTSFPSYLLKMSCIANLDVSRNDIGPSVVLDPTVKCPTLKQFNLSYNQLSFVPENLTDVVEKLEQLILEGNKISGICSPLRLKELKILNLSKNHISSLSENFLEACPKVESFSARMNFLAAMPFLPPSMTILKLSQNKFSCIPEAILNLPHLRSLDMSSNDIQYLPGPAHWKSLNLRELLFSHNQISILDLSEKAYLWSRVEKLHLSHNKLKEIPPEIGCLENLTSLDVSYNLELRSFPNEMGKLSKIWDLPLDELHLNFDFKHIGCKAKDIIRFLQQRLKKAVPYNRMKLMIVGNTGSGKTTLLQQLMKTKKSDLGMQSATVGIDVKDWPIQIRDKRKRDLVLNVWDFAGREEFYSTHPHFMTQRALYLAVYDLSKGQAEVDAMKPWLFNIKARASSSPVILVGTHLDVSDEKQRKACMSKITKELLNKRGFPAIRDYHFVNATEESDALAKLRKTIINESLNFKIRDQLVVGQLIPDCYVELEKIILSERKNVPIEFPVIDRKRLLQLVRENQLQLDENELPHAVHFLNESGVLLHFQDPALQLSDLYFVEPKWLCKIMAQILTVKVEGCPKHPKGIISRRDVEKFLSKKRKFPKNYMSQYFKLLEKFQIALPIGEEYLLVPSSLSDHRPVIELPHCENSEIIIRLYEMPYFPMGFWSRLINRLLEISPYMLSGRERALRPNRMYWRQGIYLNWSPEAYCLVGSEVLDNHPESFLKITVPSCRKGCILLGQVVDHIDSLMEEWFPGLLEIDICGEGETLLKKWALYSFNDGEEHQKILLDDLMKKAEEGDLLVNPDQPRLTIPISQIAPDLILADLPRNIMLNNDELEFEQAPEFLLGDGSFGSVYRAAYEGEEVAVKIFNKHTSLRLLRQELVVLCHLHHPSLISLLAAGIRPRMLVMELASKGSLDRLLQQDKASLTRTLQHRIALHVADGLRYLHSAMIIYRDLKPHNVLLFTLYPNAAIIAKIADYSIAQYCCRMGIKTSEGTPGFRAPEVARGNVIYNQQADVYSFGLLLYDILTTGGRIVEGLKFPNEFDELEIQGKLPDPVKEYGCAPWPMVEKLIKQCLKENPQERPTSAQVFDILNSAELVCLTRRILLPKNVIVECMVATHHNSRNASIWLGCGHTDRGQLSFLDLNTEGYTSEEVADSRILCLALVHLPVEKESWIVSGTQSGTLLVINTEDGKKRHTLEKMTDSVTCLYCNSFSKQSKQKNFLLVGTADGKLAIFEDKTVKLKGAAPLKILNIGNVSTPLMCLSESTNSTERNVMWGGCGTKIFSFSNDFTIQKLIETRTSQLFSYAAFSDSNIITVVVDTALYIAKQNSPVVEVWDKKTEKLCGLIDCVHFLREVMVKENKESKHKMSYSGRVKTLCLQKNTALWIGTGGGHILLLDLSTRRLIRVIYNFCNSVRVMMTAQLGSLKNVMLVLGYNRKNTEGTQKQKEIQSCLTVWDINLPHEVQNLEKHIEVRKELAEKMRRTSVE

Row | SMILES | IC50 [nM]
1 | CC1(N2CCN(c3cc4cc(NC(=O)C5CC5c5cccs5)ncc4cc3Cl)CC2)COCC1O (single isomer, unassigned) [Ex-10.14, (1R,2R or 1R,2S)-N-[7-chloro-6-[4-((3R,4R or 3S,4S)-4-hydroxy-3-methyl-tetrahydrofuran-3-yl)piperazin-1-yl]-3-isoquinolyl]-2-(2-thienyl)cyclopropanecarboxamide] | 4.27
2 | CC1C(C(=O)Nc2cc3cc(N4CCN(C5(C)COCC5F)CC4)c(Cl)cc3cn2)C1c1ccn(C)n1 (single isomer, unassigned) [Ex-10.15] | 1.17
3 | CC1C(C(=O)Nc2cc3cc(N4CCN(C5(C)COCC5F)CC4)c(Cl)cc3cn2)C1c1ccn(C)n1 (single isomer, unassigned) [Ex-10.16] | 7.94
4 | Cn1ccc(C2CC2C(=O)Nc2cc3cc(N4CCN(C5(C)COCC5F)CC4)c(Cl)cc3cn2)n1 (single isomer, unassigned) [Ex-10.17, (1R,2R or 1S,2S)-N-[7-chloro-6-[4-((3R,4R or 3S,4S)-4-fluoro-3-methyl-tetrahydrofuran-3-yl)piperazin-1-yl]-3-isoquinolyl]-2-(1-methylpyrazol-3-yl)cyclopropanecarboxamide] | 2.75
5 | Cn1ccc(C2CC2C(=O)Nc2cc3cc(N4CCN(C5(C)COCC5F)CC4)c(Cl)cc3cn2)n1 (single isomer, unassigned) [Ex-10.18, (1R,2R or 1S,2S)-N-[7-chloro-6-[4-((3R,4R or 3S,4S)-4-fluoro-3-methyl-tetrahydrofuran-3-yl)piperazin-1-yl]-3-isoquinolyl]-2-(1-methylpyrazol-3-yl)cyclopropanecarboxamide] | 8.71
6 | CC(C)Cn1nccc1C1CC1C(=O)Nc1cc2cc(N3CCN(C4(C)COCC4O)CC3)c(Cl)cc2cn1 (single isomer, unassigned) [Ex-10.19, (1R,2R or 1S,2S)-N-[7-chloro-6-[4-((3R,4R or 3S,4S)-4-hydroxy-3-methyl-tetrahydrofuran-3-yl)piperazin-1-yl]-3-isoquinolyl]-2-(2-isobutylpyrazol-3-yl)cyclopropanecarboxamide] | 42.7
7 | CC(C)Cn1nccc1C1CC1C(=O)Nc1cc2cc(N3CCN(C4(C)COCC4O)CC3)c(Cl)cc2cn1 (single isomer, unassigned) [Ex-10.20, (1R,2R or 1S,2S)-N-[7-chloro-6-[4-((3R,4R or 3S,4S)-4-hydroxy-3-methyl-tetrahydrofuran-3-yl)piperazin-1-yl]-3-isoquinolyl]-2-(2-isobutylpyrazol-3-yl)cyclopropanecarboxamide] | 2.24
8 | CC(C)n1nccc1C1CC1C(=O)Nc1cc2cc(N3CCN(C4(C)COCC4O)CC3)c(Cl)cc2cn1 (single isomer, unassigned) [Ex-10.21, (1R,2R or 1S,2S)-N-[7-chloro-6-[4-((3R,4R or 3S,4S)-4-hydroxy-3-methyl-tetrahydrofuran-3-yl)piperazin-1-yl]-3-isoquinolyl]-2-(2-isopropylpyrazol-3-yl)cyclopropanecarboxamide] | 44.7
9 | CC(C)n1nccc1C1CC1C(=O)Nc1cc2cc(N3CCN(C4(C)COCC4O)CC3)c(Cl)cc2cn1 (single isomer, unassigned) [Ex-10.22, (1R,2R or 1S,2S)-N-[7-chloro-6-[4-((3R,4R or 3S,4S)-4-hydroxy-3-methyl-tetrahydrofuran-3-yl)piperazin-1-yl]-3-isoquinolyl]-2-(2-isopropylpyrazol-3-yl)cyclopropanecarboxamide] | 2.69
10 | CCOC1CC2(C1)CC2C(=O)Nc1cc2cc(N3CCN(C4(C)COCC4F)CC3)c(Cl)cc2cn1 (single isomer, unassigned) [Ex-10.23, (1R,2R or 1S,2S)-N-[7-chloro-6-[4-((3R,4R or 3S,4S)-4-fluoro-3-methyl-tetrahydrofuran-3-yl)piperazin-1-yl]-3-isoquinolyl]-5-ethoxy-spiro[2.3]hexane-2-carboxamide] | 0.724
11 | CCOC1CC2(C1)CC2C(=O)Nc1cc2cc(N3CCN(C4(C)COCC4F)CC3)c(Cl)cc2cn1 (single isomer, unassigned) [Ex-10.24, (1R,2R or 1S,2S)-N-[7-chloro-6-[4-((3R,4R or 3S,4S)-4-fluoro-3-methyl-tetrahydrofuran-3-yl)piperazin-1-yl]-3-isoquinolyl]-5-ethoxy-spiro[2.3]hexane-2-carboxamide] | 0.0813
12 | Cn1ncc(C2CC2C(=O)Nc2cc3cc(N4CCN(C5(C)CCOC5)CC4)c(Cl)cc3cn2)c1C(F)(F)F (single isomer, unassigned) [Ex-10.25, (1R,2R or 1S,2S)-N-[7-chloro-6-[4-((R or S)-3-methyltetrahydrofuran-3-yl)piperazin-4-ium-1-yl]-3-isoquinolyl]-2-[1-methyl-5-(trifluoromethyl)pyrazol-4-yl]cyclopropanecarboxamide] | 3.72
13 | Cn1ncc(C2CC2C(=O)Nc2cc3cc(N4CCN(C5(C)CCOC5)CC4)c(Cl)cc3cn2)c1C(F)(F)F (single isomer, unassigned) [Ex-10.26, (1R,2R or 1S,2S)-N-[7-chloro-6-[4-((R or S)-3-methyltetrahydrofuran-3-yl)piperazin-4-ium-1-yl]-3-isoquinolyl]-2-[1-methyl-5-(trifluoromethyl)pyrazol-4-yl]cyclopropanecarboxamide] | 525
14 | Cn1ncc(C2CC2C(=O)Nc2cc3cc(N4CCN(C5(C)CCOC5)CC4)c(Cl)cc3cn2)c1C(F)(F)F (single isomer, unassigned) [Ex-10.27, (1R,2R or 1S,2S)-N-[7-chloro-6-[4-((R or S)-3-methyltetrahydrofuran-3-yl)piperazin-4-ium-1-yl]-3-isoquinolyl]-2-[1-methyl-5-(trifluoromethyl)pyrazol-4-yl]cyclopropanecarboxamide] | 38
15 | Cn1ncc(C2CC2C(=O)Nc2cc3cc(N4CCN(C5(C)CCOC5)CC4)c(Cl)cc3cn2)c1C(F)(F)F (single isomer, unassigned) [Ex-10.28, (1R,2R or 1S,2S)-N-[7-chloro-6-[4-((R or S)-3-methyltetrahydrofuran-3-yl)piperazin-4-ium-1-yl]-3-isoquinolyl]-2-[1-methyl-5-(trifluoromethyl)pyrazol-4-yl]cyclopropanecarboxamide] | 56.2
16 | CC1(N2CCN(c3cc4cc(NC(=O)C5CC5c5ccco5)ncc4cc3Cl)CC2)COCC1O (single isomer, unassigned) [Ex-10.29, (1R,2R or 1S,2S)-N-[7-chloro-6-[4-((3R,4R or 3S,4S)-4-hydroxy-3-methyl-tetrahydrofuran-3-yl)piperazin-1-yl]-3-isoquinolyl]-2-(2-furyl)cyclopropanecarboxamide] | 0.275
17 | CC1(N2CCN(c3cc4cc(NC(=O)C5CC5c5ccco5)ncc4cc3Cl)CC2)COCC1O (single isomer, unassigned) [Ex-10.30, (1R,2R or 1S,2S)-N-[7-chloro-6-[4-((3R,4R or 3S,4S)-4-hydroxy-3-methyl-tetrahydrofuran-3-yl)piperazin-1-yl]-3-isoquinolyl]-2-(2-furyl)cyclopropanecarboxamide] | 0.0813
18 | CC1(N2CCN(c3cc4cc(NC(=O)C5CC5C5CCOCC5)ncc4cc3Cl)CC2)COCC1O (single isomer, unassigned) [Ex-10.31, (1R,2R or 1S,2S)-N-[7-chloro-6-[4-((3R,4R or 3S,4S)-4-hydroxy-3-methyl-tetrahydrofuran-3-yl)piperazin-1-yl]-3-isoquinolyl]-2-tetrahydropyran-4-yl-cyclopropanecarboxamide] | 0.0813
19 | Cc1cc2cnc(NC(=O)C3CC3c3cnn(C)c3C(F)(F)F)cc2cc1N1CCN(C2(C)CCOC2)CC1 (single isomer, unassigned) [Ex-10.33, (1R,2R or 1S,2S)-N-[7-methyl-6-[4-((R or S)-3-methyltetrahydrofuran-3-yl)piperazin-1-yl]-3-isoquinolyl]-2-[1-methyl-5-(trifluoromethyl)pyrazol-4-yl]cyclopropanecarboxamide] | 4.79
20 | Cc1cc2cnc(NC(=O)C3CC3c3cnn(C)c3C(F)(F)F)cc2cc1N1CCN(C2(C)CCOC2)CC1 (single isomer, unassigned) [Ex-10.34, (1R,2R or 1S,2S)-N-[7-methyl-6-[4-((R or S)-3-methyltetrahydrofuran-3-yl)piperazin-1-yl]-3-isoquinolyl]-2-[1-methyl-5-(trifluoromethyl)pyrazol-4-yl]cyclopropanecarboxamide] | 69.2
21 | Cc1cc2cnc(NC(=O)C3CC3c3cnn(C)c3C(F)(F)F)cc2cc1N1CCN(C2(C)CCOC2)CC1 (single isomer, unassigned) [Ex-10.35, (1R,2R or 1S,2S)-N-[7-methyl-6-[4-((R or S)-3-methyltetrahydrofuran-3-yl)piperazin-1-yl]-3-isoquinolyl]-2-[1-methyl-5-(trifluoromethyl)pyrazol-4-yl]cyclopropanecarboxamide] | 1.7
22 | Cc1cc2cnc(NC(=O)C3CC3c3cnn(C)c3C(F)(F)F)cc2cc1N1CCN(C2(C)CCOC2)CC1 (single isomer, unassigned) [Ex-10.36, (1R,2R or 1S,2S)-N-[7-methyl-6-[4-((R or S)-3-methyltetrahydrofuran-3-yl)piperazin-1-yl]-3-isoquinolyl]-2-[1-methyl-5-(trifluoromethyl)pyrazol-4-yl]cyclopropanecarboxamide] | 107
23 | CCC1C(C(=O)Nc2cc3cc(N4CCN(C5(C)CCOC5)CC4)c(C)cc3cn2)C1c1cnn(C)c1 (single isomer, unassigned) [Ex-10.37, (1R,2R,3R, 1R,2S,3R, 1S,2R,3S, or 1S,2S,3S)-2-ethyl-N-[7-methyl-6-[4-((R or S)-3-methyltetrahydrofuran-3-yl)piperazin-4-ium-1-yl]-3-isoquinolyl]-3-(1-methylpyrazol-4-yl)cyclopropanecarboxamide] | 0.0813
